Measured values as given in ChEMBL document CHEMBL3352320, “Novel benzothiazinones (BTOs) as allosteric modulator or substrate competitive inhibitor of glycogen synthase kinase 3β (GSK-3β) with cellular activity of promoting glucose uptake” (Bioorg Med Chem Lett, 2014).
Activity calls are given as the source filed them. The calls are words filed in the database; no cut-off is given here. Non-standard residues stand in square brackets, D forms with d. Residues, ends and D or L forms follow the SMILES beside them. *: point of attachment. Myristoyl = CCCCCCCCCCCCCC(=O)*; pS = N[C@@H](COP(=O)(O)O)C(=O)O

What was measured:
[1] = biological target: Platelet-derived growth factor receptor beta (Homo sapiens) (UniProt P09619); test: Inhibition of PDGFRbeta (unknown origin) at 100 uM
Sequence of Platelet-derived growth factor receptor beta (Homo sapiens) (P09619 whole entry): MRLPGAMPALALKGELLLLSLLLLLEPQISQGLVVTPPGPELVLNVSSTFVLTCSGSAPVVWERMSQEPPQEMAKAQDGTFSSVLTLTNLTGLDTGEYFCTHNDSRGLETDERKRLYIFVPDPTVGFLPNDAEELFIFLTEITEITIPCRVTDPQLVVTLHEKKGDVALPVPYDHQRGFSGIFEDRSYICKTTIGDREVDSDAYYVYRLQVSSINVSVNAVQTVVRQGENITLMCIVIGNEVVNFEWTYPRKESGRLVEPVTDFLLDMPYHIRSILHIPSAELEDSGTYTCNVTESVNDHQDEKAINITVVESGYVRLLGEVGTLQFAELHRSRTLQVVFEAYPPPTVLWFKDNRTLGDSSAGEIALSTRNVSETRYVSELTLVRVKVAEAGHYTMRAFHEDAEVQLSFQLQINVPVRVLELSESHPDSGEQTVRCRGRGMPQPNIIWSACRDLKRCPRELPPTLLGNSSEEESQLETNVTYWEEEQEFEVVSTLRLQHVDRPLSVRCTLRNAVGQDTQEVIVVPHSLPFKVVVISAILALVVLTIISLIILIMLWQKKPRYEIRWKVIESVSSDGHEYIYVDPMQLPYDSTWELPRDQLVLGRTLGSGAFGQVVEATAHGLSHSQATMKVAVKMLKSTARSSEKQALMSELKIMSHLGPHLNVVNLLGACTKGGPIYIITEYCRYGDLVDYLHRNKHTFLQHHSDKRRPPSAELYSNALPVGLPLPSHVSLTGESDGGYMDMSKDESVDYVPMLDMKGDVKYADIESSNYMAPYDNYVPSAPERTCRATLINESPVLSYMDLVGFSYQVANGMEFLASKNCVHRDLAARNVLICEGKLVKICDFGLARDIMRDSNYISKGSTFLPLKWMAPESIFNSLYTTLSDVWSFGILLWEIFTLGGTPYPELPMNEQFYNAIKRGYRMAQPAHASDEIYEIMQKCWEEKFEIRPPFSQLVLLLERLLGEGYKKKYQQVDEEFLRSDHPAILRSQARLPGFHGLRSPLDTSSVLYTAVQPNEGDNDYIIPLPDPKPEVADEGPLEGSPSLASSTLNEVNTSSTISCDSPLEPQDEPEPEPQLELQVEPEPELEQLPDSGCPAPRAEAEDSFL

[2] = biological target: Platelet-derived growth factor receptor alpha (Homo sapiens) (UniProt P16234); test: Inhibition of PDGFRalpha (unknown origin) at 100 uM
Sequence of Platelet-derived growth factor receptor alpha (Homo sapiens) (P16234 whole entry): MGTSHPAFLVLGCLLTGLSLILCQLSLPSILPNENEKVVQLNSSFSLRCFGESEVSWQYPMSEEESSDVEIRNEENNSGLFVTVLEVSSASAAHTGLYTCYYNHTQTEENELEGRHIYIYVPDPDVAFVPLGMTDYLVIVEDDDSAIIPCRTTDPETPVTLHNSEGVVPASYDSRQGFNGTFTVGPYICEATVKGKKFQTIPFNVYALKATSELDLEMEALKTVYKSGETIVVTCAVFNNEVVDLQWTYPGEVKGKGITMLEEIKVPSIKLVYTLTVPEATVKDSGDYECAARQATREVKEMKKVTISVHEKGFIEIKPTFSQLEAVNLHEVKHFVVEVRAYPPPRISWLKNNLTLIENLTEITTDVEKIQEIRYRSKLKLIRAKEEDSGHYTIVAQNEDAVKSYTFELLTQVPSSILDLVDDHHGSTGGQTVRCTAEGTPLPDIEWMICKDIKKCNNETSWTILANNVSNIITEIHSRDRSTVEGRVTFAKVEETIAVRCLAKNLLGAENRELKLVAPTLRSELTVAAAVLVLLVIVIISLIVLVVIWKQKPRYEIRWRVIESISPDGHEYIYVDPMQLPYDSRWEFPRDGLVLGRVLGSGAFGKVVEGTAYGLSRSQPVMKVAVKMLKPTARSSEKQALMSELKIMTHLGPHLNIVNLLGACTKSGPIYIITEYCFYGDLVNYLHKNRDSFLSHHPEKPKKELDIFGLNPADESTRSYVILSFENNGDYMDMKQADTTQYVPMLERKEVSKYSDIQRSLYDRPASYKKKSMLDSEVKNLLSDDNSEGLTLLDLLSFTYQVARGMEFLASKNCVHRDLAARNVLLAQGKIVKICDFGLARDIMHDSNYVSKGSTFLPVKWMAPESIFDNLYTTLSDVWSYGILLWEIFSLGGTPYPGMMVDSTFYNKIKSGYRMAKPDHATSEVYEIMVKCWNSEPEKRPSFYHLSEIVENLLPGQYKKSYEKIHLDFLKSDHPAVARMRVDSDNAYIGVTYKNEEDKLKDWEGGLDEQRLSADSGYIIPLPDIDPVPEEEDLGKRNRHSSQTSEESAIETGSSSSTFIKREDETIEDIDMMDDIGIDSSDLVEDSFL

[3] = biological target: Receptor tyrosine-protein kinase erbB-4 (Homo sapiens) (UniProt Q15303); test: Inhibition of ErbB4 (unknown origin) at 100 uM
Sequence of Receptor tyrosine-protein kinase erbB-4 (Homo sapiens) (Q15303 whole entry): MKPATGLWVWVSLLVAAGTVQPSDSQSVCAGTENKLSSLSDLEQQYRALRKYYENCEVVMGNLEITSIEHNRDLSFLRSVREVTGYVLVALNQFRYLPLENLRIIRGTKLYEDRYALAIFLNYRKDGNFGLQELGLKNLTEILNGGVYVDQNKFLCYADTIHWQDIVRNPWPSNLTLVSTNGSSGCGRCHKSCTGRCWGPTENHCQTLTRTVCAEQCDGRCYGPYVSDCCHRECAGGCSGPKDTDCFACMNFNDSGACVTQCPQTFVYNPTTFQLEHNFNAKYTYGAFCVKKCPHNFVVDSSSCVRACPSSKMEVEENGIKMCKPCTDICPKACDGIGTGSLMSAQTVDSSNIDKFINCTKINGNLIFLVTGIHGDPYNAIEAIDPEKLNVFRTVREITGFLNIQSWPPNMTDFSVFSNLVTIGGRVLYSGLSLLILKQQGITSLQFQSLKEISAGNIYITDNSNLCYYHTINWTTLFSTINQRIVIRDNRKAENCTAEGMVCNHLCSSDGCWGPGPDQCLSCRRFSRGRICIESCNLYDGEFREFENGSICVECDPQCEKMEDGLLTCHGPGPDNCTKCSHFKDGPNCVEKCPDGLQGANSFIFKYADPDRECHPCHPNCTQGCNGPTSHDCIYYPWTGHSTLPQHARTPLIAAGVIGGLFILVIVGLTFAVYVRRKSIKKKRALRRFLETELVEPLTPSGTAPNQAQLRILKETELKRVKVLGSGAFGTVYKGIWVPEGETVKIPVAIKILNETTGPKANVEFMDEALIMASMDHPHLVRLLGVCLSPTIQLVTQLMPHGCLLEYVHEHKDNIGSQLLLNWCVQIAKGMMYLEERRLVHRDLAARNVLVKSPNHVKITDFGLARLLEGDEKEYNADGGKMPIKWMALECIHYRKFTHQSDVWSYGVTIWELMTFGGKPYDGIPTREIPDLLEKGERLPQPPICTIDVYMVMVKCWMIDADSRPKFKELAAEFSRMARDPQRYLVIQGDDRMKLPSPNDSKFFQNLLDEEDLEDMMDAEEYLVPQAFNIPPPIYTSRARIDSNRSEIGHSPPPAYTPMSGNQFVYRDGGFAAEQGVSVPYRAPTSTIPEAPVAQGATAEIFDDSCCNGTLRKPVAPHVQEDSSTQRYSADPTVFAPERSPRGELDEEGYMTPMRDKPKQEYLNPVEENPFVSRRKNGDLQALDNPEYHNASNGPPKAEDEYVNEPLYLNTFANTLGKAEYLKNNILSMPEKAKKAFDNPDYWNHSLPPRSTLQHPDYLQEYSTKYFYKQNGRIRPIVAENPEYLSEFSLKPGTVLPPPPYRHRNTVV

HepG2 [4] = test: Increase in glucose incorporation in human HepG2 cells at 2 uM after 12 hrs by glucose assay; assay type: functional, cell-based
[5] = biological target: T1, Glycogen synthase kinase-3 beta (Homo sapiens, UniProt P49841); conditions: HepG2, 2 uM
Target sequence in this assay (P49841 whole entry, looked up): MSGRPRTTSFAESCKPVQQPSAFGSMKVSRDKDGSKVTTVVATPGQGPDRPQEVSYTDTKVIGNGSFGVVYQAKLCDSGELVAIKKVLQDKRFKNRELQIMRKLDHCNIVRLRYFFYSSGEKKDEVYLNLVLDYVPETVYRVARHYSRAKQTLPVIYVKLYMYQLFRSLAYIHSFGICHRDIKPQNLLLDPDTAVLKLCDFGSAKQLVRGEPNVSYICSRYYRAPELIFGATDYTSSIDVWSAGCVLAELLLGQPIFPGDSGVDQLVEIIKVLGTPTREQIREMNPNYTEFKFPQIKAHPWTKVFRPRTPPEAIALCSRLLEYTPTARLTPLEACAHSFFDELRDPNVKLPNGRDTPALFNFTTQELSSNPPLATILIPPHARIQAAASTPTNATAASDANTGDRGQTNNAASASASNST
Description: Inhibition of GSK3beta in human HepG2 cells assessed as decrease in ratio of phosphorylated GS/GS at 2 uM after 12 hrs by Western blot analysis

3T3-L1 [6] = test: Increase in glucose incorporation in mouse 3T3L1 cells at 2 uM after 12 hrs by glucose assay; assay type: functional, cell-based
[7] = biological target: T1, Glycogen synthase kinase-3 beta; test: Inhibition of GSK3beta (unknown origin) using peptide substrate GS2 assessed as ATP remaining by Kinase-Glo luminescent kinase assay
Target sequence in this assay (P49841 whole entry): as the sequence (P49841 whole entry, looked up) above

HepG2 [8] = test: Increase in glucose incorporation in human HepG2 cells at 34 uM after 12 hrs by glucose assay; assay type: functional, cell-based
3T3-L1 [9] = test: Increase in glucose incorporation in mouse 3T3L1 cells at 34 uM after 12 hrs by glucose assay; assay type: functional, cell-based
[10] = biological target: T1, Glycogen synthase kinase-3 beta; conditions: HepG2, 34 uM
Target sequence in this assay (P49841 whole entry, looked up): as above
Description: Inhibition of GSK3beta in human HepG2 cells assessed as decrease in ratio of phosphorylated GS/GS at 34 uM after 12 hrs by Western blot analysis

HepG2 [11] = test: Increase in glucose incorporation in human HepG2 cells at 10 uM after 12 hrs by glucose assay; assay type: functional, cell-based
[12] = biological target: T1, Glycogen synthase kinase-3 beta; test: Inhibition of GSK3beta in human […] cells assessed as decrease in ratio of phosphorylated GS/GS at 10 uM after 12 hrs by Western blot analysis; assay type: cell-based
Target sequence in this assay (P49841 whole entry, looked up): as above

3T3-L1 [13] = test: Increase in glucose incorporation in mouse 3T3L1 cells at 10 uM after 12 hrs by glucose assay; assay type: functional, cell-based
[14] = biological target: T1, Glycogen synthase kinase-3 beta; test: Competitive inhibition of GSK3beta (unknown origin) using peptide substrate GS2 assessed as ATP remaining by Kinase-Glo luminescent kinase assay
Target sequence in this assay (P49841 whole entry, looked up): as above

[15] = biological target: Casein kinase II (Homo sapiens) (UniProt P67870+P68400+P19784); test: Inhibition of CK2 (unknown origin) at 100 uM; assay type: protein-complex assay
[16] = biological target: Vascular endothelial growth factor receptor 2 (Homo sapiens) (UniProt P35968); test: Inhibition of KDR (unknown origin) at 100 uM
[17] = biological target: Fibroblast growth factor receptor 1 (Homo sapiens) (UniProt P11362); test: Inhibition of FGFR1 (unknown origin) at 100 uM
Sequence of Fibroblast growth factor receptor 1 (Homo sapiens) (P11362 22-822 limits assumed): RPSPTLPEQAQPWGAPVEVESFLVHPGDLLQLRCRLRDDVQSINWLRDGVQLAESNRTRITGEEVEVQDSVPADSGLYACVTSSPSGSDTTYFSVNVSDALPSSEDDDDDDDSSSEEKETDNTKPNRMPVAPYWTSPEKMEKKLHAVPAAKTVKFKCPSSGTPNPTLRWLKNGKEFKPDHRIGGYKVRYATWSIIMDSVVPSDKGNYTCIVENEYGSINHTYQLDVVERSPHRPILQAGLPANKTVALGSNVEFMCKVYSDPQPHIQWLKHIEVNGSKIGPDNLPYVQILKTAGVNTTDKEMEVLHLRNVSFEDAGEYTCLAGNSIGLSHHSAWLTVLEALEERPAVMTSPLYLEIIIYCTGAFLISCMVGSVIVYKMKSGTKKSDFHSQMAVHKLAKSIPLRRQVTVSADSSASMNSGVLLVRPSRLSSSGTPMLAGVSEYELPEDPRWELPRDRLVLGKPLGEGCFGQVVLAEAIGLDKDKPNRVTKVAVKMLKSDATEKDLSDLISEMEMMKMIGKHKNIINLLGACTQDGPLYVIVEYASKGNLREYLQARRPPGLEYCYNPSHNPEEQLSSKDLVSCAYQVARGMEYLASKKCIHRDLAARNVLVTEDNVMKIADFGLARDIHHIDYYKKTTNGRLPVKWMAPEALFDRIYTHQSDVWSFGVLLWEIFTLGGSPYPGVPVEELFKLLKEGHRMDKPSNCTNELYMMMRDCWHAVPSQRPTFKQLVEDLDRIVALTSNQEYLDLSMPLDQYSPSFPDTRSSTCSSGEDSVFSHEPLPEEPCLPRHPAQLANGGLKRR

[18] = biological target: Protein kinase C alpha type (Homo sapiens) (UniProt P17252); test: Inhibition of PKCalpha (unknown origin) at 100 uM
[19] = biological target: Cyclin-dependent kinase 1 (Homo sapiens) (UniProt P06493); test: Inhibition of CDK1 (unknown origin) at 100 uM
[20] = biological target: Proto-oncogene tyrosine-protein kinase Src (Homo sapiens) (UniProt P12931); conditions: at 100 µM
Description: Inhibition of c-Src (unknown origin) at 100 uM

`CCN(CC)CCNC(=O)c1c(C)[nH]c(/C=C2\C(=O)Nc3ccc(F)cc32)c1C` gave an inhibition [1] of 70.6% and an inhibition [2] of 71.4%.
For `CN(C)C/C=C/C(=O)Nc1cc2c(Nc3ccc(F)c(Cl)c3)ncnc2cc1O[C@H]1CCOC1`, the inhibition [3] was 88.1%.
`Cn1sc(=O)n(Cc2ccccc2)c1=O` was tested, and the Activity (HepG2 [4]) was “Active”, the inhibition [5] was “Active” and the Activity (3T3-L1 [6]) was “Active”.
Work on `CCCCCCCCCCCCCC(=O)NCC(=O)N[C@@H](CCCCN)C(=O)N[C@@H](CCC(=O)O)C(=O)N[C@@H](C)C(=O)N1CCC[C@H]1C(=O)N1CCC[C@H]1C(=O)N[C@@H](C)C(=O)N1CCC[C@H]1C(=O)N1CCC[C@H]1C(=O)N[C@@H](CCC(N)=O)C(=O)N[C@@H](COP(=O)(O)O)C(=O)N1CCC[C@H]1C(N)=O` (Myristoyl-GKEAPPAPPQ[pS]P-NH2) yielded an IC50 [7] of 40 µM.
`Cn1cc(C2=C(c3ccc(Cl)cc3Cl)C(=O)NC2=O)c2ccccc21` was tested, and the Activity (HepG2 [8]) was “Active”, the Activity (3T3-L1 [9]) was “Active” and the inhibition [10] was “Active”.
With `CCCCCCCCCCCC(=O)NNC(=O)C1Sc2ccccc2N(CC)C1=O` (stereo not drawn) the IC50 [7] was 8 µM, the Activity (HepG2 [11]) was “Active” and the inhibition [12] was “Active”. The Activity (3T3-L1 [13]) was “Active”.
In the case of `CCCCCCCCCCCC(=O)NNC(=O)C1Sc2ccccc2N(Cc2ccccc2)C1=O` (stereo not drawn), the inhibition [14] is reported as “Active”, the inhibition [15] is reported as 0% and the inhibition [1] is reported as 0%. For the same compound, the inhibition [16] was 12.4%, the IC50 [7] was 10 µM and the inhibition [17] was 29.3%. The inhibition [18] was 13%, the inhibition [19] was 36% and the Activity (HepG2 [11]) was “Active”. For the same compound, the inhibition [2] was 0%, the inhibition [20] was 12.2% and the inhibition [3] was 0%. The inhibition [12] was “Active” and the Activity (3T3-L1 [13]) was “Active”.
